Experimental data as given in patent publication US20150284362A1, “CARBAZOLE-CONTAINING AMIDES, CARBAMATES, AND UREAS AS CRYPTOCHROME MODULATORS” (ReSet Therapeutics, Inc., priority 2014, published 2015).

Assays:
[1] = tested on: core clock and gluconeogenic gene mRNAs in liver; experiment: 24 hour gene expression study, liver mRNA by RT-qPCR, C57Bl/6J DIO mice; assay type: in vivo, mouse; conditions: 50 mg/kg PO BID, 5 doses
Excerpt: Male C57Bl/6J DIO mice were purchased at 17 weeks of age (The Jackson Laboratory, Sacramento, Calif.) and acclimated for a 2 week period before being used for the experiment. Overall group size was 15 per treatment, divided into 5 time-points to give a final group size of 3 mice.
In total, each mouse received 5 doses of compound over the course of the experiment. Mice were weighed and randomly assigned to each treatment based on weight the evening before the commencement of the study. Beginning on Day 3 at 3:00 PM, a group of animals from the vehicle and Compound 72-treated groups were euthanized using CO2 asphyxiation, 50 mg of liver, epididymal fat, and skeletal muscle, respectively, were excised and placed in tube containing 500 μl of RNALater. This procedure took place for the remainder of the time-point groups at their given harvest times. Plasma samples were also taken for each animal and frozen, to be used for later measurement of compound levels.
(§1) E.Z.N.A.® HP Total RNA Isolation Kits (R6812-01 and the protocol described in the Manual, Revised 2010) were utilized to prepare and isolate RNA from the liver samples. To prepare the RNA samples, 10-30 mg of sample was removed from RNA-Later and placed in a 1.5 ml microfuge tube. GTC lysis buffer (700 μl) was added to the tissue, which was homogenized with a rotor-stator homogenizer (e.g. Tissue-Tearor, Model #985370 BioSpec Products with 4.5 mm probe, Cat. #985370-04), and then centrifuged at full speed (≧13,000×g) for 5 minutes. The cleared supernatant was transferred by pipetting to a DNA Clearance Column Pre-inserted in a 2 mL Collection Tube. The assembled column was centrifuged at 13,000×g for 1 minute, and the flow-through was saved. An equal volume (700 μl) of 70% ethanol was added to the lysate and mixed. The sample was then applied to a HiBind RNA spin column placed into a 2 ml collection tube, which was centrifuged at 10,000×g for 60 seconds at room temperature. RNA Wash Buffer I (250 μl) was added by pipetting directly onto a new HiBind RNA column inserted in a 2 ml collection tube. The assembled column was centrifuged at 10,000×g for 60 seconds. The RNA column was placed into a new 2 ml collection tube. DNase I stock solution is pipetted (75 μl) directly onto the surface of the HiBind RNA resin in each column (Using DNAse Digestion with RNase Free DNase Set (E1091): for each HiBind RNA column, the DNase I stock solution was prepared as followed: E.Z.N.A.® DNase I Digestion Buffer 73.5 μl, RNase Free DNase I (20 Kunitz/μl) 1.5 μl=Total Volume 75 μl.). The column with bound RNA was incubated at room temperature (25-30° C.) for 15 minutes. RNA Wash Buffer I (500 μl) was added to the column and placed on a bench top for 2 minutes. After centrifuging at 10,000×g for 60 seconds, discarding the flow-through, 500 μl of RNA Wash Buffer II was added and centrifuged at 10,000×g for 60 seconds. Another 500 μl of RNA Wash Buffer II was added and the column assembly was centrifuged at 10,000×g for 60 seconds. The column was centrifuged for 2 minutes at maximum speed to completely dry the HiBind matrix. The column was placed in a clean 1.5 ml microcentrifuge tube and 40-70 μl of molecular biology grade water is added. […]
RediPlate 96 RiboGreen RNA Quantification Kit (Invitrogen) RediPlate standard curve was prepared by transferring 20 μl reconstituted RNA standard to a RediPlate well reconstituted in 180 μl RediPlate TE buffer. […]

[2] = tested on: core clock gene mRNAs in liver; experiment: 24 hour gene expression study, liver mRNA by RT-qPCR, Balb/c mice; assay type: in vivo, mouse; conditions: 50 mg/kg PO BID, 7 doses
Method: as §1, with “matrix.” for “matrix. The column was placed in a clean 1.5 ml microcentrifuge tube and 40-70 μl of molecular biology grade water is added.”
RediPlate 96 RiboGreen RNA Quantification Kit (Invitrogen) RediPlate standard curve was prepared by transferring 20 μl reconstituted RNA standard to a RediPlate well reconstituted in 180 μl RediPlate TE buffer. […] After transferring 5 μl to RediPlate well reconstituted in 195 μl TE buffer and incubating 10 min. at RT, Fluorescence Intensity of wells with standards and samples were read in a Tecan M200 with Excitation set at 480 nm and Emission set at 520 nm with the gain set to ˜70%. […] A standard curve was generated in GraphPad Prism and sample readings (unknowns) are interpolated via linear regression analysis, and the RNA sample concentrations were calculated. […]

db/db mice [3] = experiment: 7 day dosing, glucose metabolism, insulin and compound levels in db/db mouse model of type II diabetes; assay type: in vivo; conditions: 50 mg/kg PO QD 7 days
Excerpt: (§2) Significance was accepted when p<0.05.

db/db mice [4] = experiment: Increasing dosages of Compound 72 over 7 days in db/db mouse model of type II diabetes; assay type: in vivo; conditions: 10, 50, 100 mg/kg PO QD 7 days
Excerpt: as §2

C57/Bl6J DIO mice = experiment: Increasing dosages of Compound 72 over 7 days in diet-induced obesity (DIO) mouse model; assay type: in vivo; conditions: 10, 30, 100 mg/kg PO QD 7 days
Excerpt: Male C57/Bl6J DIO mice were obtained from The Jackson Laboratory (Sacramento, Calif.). […] Animals were accustomed to these conditions for at least 2 weeks before experimentation and used at approximately 24 weeks of age.
as §2
Male C57/Bl6J DIO mice were obtained from The Jackson Laboratory (Sacramento, Calif.). […] Animals were accustomed to these conditions for at least 2 weeks before experimentation and used at approximately 26 weeks of age.

[5] = at ZT8 and 32 hours after ZT0 vs vehicle

## O=C1NCCN1CC(O)Cn1c2ccc(F)cc2c2cc(F)ccc21 (stereo not drawn) [Compound 72, 1-(3-(3,6-difluoro-9H-carbazol-9-yl)-2-hydroxypropyl)imidazolidin-2-one]
[1]; [5]
  Bmal1 mRNA in liver: substantially increased
[1]; over 24 hours vs vehicle
  Per2 mRNA in liver: suppressed
[1]; vs vehicle
  Cry1 mRNA in liver: suppressed during its peak of expression during the dark period
  Cry2 mRNA in liver (daytime peak): strongly attenuated
  circadian pattern of mRNAs for gluconeogenic genes Pck1 and G6Pc in liver: substantially altered
[2]; [5]
  Bmal1 mRNA in liver: substantially increased
[2]; over 24 hours vs vehicle
  Per2 mRNA in liver: suppressed
[2]; vs vehicle
  Cry1 mRNA in liver: suppressed during its peak of expression during the dark period
  Cry2 mRNA in liver (daytime peak): strongly attenuated
db/db mice [3]
  OGTT glucose vs vehicle control group: lower than the vehicle control group
db/db mice [4]
  OGTT glucose excursion following a glucose load: dose dependent effect on glucose excursion
C57/Bl6J DIO mice
  OGTT glucose excursion following a glucose load: reduction in glucose excursion
